Data reported in patent publication EP0745083B1, “2-HETEROARYL-5,11-DIHYDRO-6H-DIPYRIDO [3,2-b:2',3'-e][1,4]DIAZEPINES AND THEIR USE IN THE PREVENTION OR TREATMENT OF HIV INFECTION” (BOEHRINGER INGELHEIM PHARMACEUTICALS INC., priority 1994, dated 1995).

molecular target: T1, HIV-1 RT wild type (WT) enzyme (Human immunodeficiency virus type 1 group M subtype B, UniProt P03367); assay: Reverse Transcriptase (RT) Assay, wild type enzyme (RNA-dependent DNA polymerase activity); assay type: biochemical, Human Immunodeficiency Virus (HIV-1); details: 1 µM compound, read-out: Reverse Transciptase Assay % inhibition (1 µM) WT
T1 construct: Reverse transcriptase enzyme from the LAV strain of Human Immunodeficiency Virus (HIV-1) (1) was isolated from the bacterial strain JM109; made in house; host or cells: E. coli JM109 (clone pBRTprt1+ in vector pIBI21, lac promoter)
Source text: Utilizing the Reverse Transcriptase (RT) Assay described below, compounds can be tested for their ability to inhibit the RNA-dependent DNA polymerase activity of HIV-1 RT. Certain specific compounds described in the Examples which appear below, were so tested.
Among the enzymes for which Human Immunodeficiency Virus (HIV-1) encodes is a reverse transcriptase (1), so-named because it transcribes a DNA copy from an RNA template. This activity can be quantitatively measured in a cell-free enzyme assay, which has been previously described (2), and is based upon the observation that reverse transcriptase is able to use a synthetic template [poly r(C) primed with oligo d(G)] to transcribe a radio-labelled, acid-precipitable DNA strand utilizing ^3H-dGTP as a substrate. The assay described below utilizes the wild type (WT) enzyme, which is the predominant form of the enzyme observed in patients infected with HIV-1. Utilization of mutant RT eraymes (Y181C and Y181L, prepared by site-directed mutagenesis in which the tyrosine residue at codon 181 has been replaced by a cysteine or a leucine residue, respectively) and analogous assay conditions allows compounds to be evaluated for their effectiveness at inhibiting these mutant enzymes.
Reverse transcriptase enzyme from the LAV strain of Human Immunodeficiency Virus (HIV-1) (1) was isolated from the bacterial strain JM109 (3) expressing the DNA clone pBRTprt1+ (2) which is under the control of the lac promotor in the expression vector pIBI21 (4). An overnight culture grown in 2XYT medium (37°C, 225 rpm) (5) supplemented with 100 µg/mL ampicillin for positive selection is inoculated at a 1:40 dilution into M9 medium supplemented with 10µg/mL thiamine, 0.5% casamino acids, and 50 µg/mL ampicillin (5). The culture is incubated (37°C, 225 rpm) until it reaches an OD540 of 0.3-0.4. At that time the repressor inhibitor IPTG (isopropyl β-D-thiogalactopyranoside) is added to 0.5mM, and the mixture is incubated for 2 additional hours. Bacteria are pelleted, resuspended in a 50mM Tris, 0.6mM EDTA, 0.375M NaCl buffer and digested by the addition of lysozyme (1mg/mL) for 30 minutes on ice. The cells are lysed by the addition of 0.2% NP-40 and brought to 1M NaCl.
After removal of the insoluble debris by centrifugation, the protein is precipitated by the addition of 3 volumes of saturated aqueous ammonium sulfate. The enzyme is pelleted, resuspended in RT buffer (50mM Tris pH 7.5, 1mM EDTA, 5mM DTT, 0.1% NP-40, 0.1M NaCI, and 50% glycerol), and stored at -70°C for further use.
The 2X concentrated stock reaction mixture is aliquoted and stored at -20°C. The mixture is stable and thawed for use in each assay. This enzyme assay has been adapted to a 96 well microtiter plate system, and has been previously described (6). Tris buffer (50 mM, pH 7.4), vehicle (solvent diluted to match the compound dilution), or compounds in vehicle are dispensed into 96-well microtiter plates (10µL/well; 3 wells/ compound). The HIV-1 RT enzyme is thawed, diluted in 50mM Tris pH 7.4 so that fifteen µL of diluted enzyme contain 0.001 Unit (one unit is that amount of enzyme to transform 1 micromole of substrate per minute at 25°C), and fifteen µL are dispensed per well. Twenty µL of 0.12-0.5M EDTA are added to the first three wells of the microtiter plate. EDTA chelates the Mg^++ present and prevents reverse transcription. This group serves as background polymerization which is subtracted from all other groups. Twenty-five ul of the 2X reaction mixture are added to all wells and the assay is allowed to incubate at room temperature for 60 minutes. The assay is terminated by precipitating the DNA in each well with 50µL of 10% trichloracetic acid (TCA) (10% w/v) in sodium pyrophosphate (1% w/v). The microtiter plate is incubated for 15 minutes at 4°C and the precipitate is fixed onto #30 glass fiber paper (Schleicher & Schuell) using a Skatron semi-automatic harvester. […]

Question: For `CCN1c2ncccc2C(=O)N(C)c2ccc(-c3cn[nH]c3)nc21` [Example 1, 5,11-Dihydro-11-ethyl-5-methyl-2-(4-pyrazolyl)-6H-dipyrido[3,2-b:2'3'-e][1,4]diazepin-6-one], which inhibition at 1 µM is on record?
Answer: 97%

Question: For `CN1C(=O)c2cccnc2N(C2CC2)c2nc(-c3cn[nH]c3)ccc21` [Example 6, 5,11-Dihydro-5-methyl-11-c-propyl-2-(4-pyrazolyl)-6H-dipyrido[3,2-b:2',3'-e][1,4]diazepin-6-one], which inhibition at 1 µM is on record?
Answer: 94%

Question: Which inhibition at 1 µM does the source give for `CCN1c2ncccc2C(=O)N(C)c2ccc(-c3cc[nH]c3)nc21` [Example 12, 5,11-Dihydro-11-ethyl-5-methyl-2-(3-pyrrolyl)-6H-dipyrido[3,2-b:2',3'-e][1,4]diazepin-6-one] here?
Answer: 95%

Question: How did the inhibition at 1 µM turn out when `CN1C(=O)c2cccnc2N(C2CC2)c2nc(-c3cc[nH]c3)ccc21` [Example 25, 11-Cyclopropyl-5,11-dihydro-5-methyl-2-(3-pyrrolyl)-6H-dipyrido[3,2-b:2',3'-e][1,4]diazepin-6-one] was run?
Answer: 92%
